Measurements: ChEMBL document CHEMBL1201861, “Genomics of Drug Sensitity in Cancer screening data, Wellcome Trust Sanger Institute”
Several values for one entry are separate records, joined by “and”; a condition that tells them apart may be missing. Equal values may be shown once.

What was measured:
Daudi = experiment: cells; format: functional, cell-based; conditions: Homo sapiens;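 also: growth inhibition of Daudi cells, read out by a viability assay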
Description: SANGER: Inhibition of human Daudi cell growth in a cell viability assay.

NCI-H1882 = experiment: cells; format: functional, cell-based; conditions: Homo sapiens;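 also: growth inhibition of the cell line, determined with a viability assay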
Description: SANGER: Inhibition of human NCI-H1882 cell growth in a cell viability assay.

BL-70 = experiment: SANGER: Inhibition of human BL-70 cell growth in a cell viability assay.; format: functional, cell-based
EW-22 = experiment: cells; format: functional, cell-based; conditions: Homo sapiens;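 also: growth inhibition of the EW-22 cell line, measured with a cell viability readout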
Description: SANGER: Inhibition of human EW-22 cell growth in a cell viability assay.

ARH-77 = experiment: cells; format: functional, cell-based; conditions: Homo sapiens;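 also: growth inhibition of ARH-77 cells, read out by a cell viability assay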
Description: SANGER: Inhibition of human ARH-77 cell growth in a cell viability assay.

BT-549 = experiment: cells; format: functional, cell-based; conditions: Homo sapiens
Description: SANGER: Inhibition of human BT-549 cell growth in a cell viability assay.

NCI-H1694 = experiment: cells; format: functional, cell-based; conditions: Homo sapiens;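 also: cell viability assay measuring inhibition of growth in human NCI-H1694 cells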
Description: SANGER: Inhibition of human NCI-H1694 cell growth in a cell viability assay.

LU-165 = experiment: cells; format: functional, cell-based; conditions: Homo sapiens
Description: SANGER: Inhibition of human LU-165 cell growth in a cell viability assay.

GDM-1 = experiment: cells; format: functional, cell-based; conditions: Homo sapiens;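 also: cell viability readout used to measure growth inhibition of human GDM-1 cells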
Description: SANGER: Inhibition of human GDM-1 cell growth in a cell viability assay.

SK-MM-2 = experiment: cells; format: functional, cell-based; conditions: Homo sapiens;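 also: growth inhibition of human SK-MM-2 cells, read out with a cell viability assay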
Description: SANGER: Inhibition of human SK-MM-2 cell growth in a cell viability assay.

NCI-H2291 = experiment: cells; format: functional, cell-based; conditions: Homo sapiens
Description: SANGER: Inhibition of human NCI-H2291 cell growth in a cell viability assay.

SW900 = experiment: cells; format: functional, cell-based; conditions: Homo sapiens;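 also: IC50 is the concentration that inhibits SW900 cell growth, measured by a cell viability assay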
Description: SANGER: Inhibition of human SW900 cell growth in a cell viability assay.

P31-FUJ = experiment: cells; format: functional, cell-based; conditions: Homo sapiens;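 also: growth inhibition of P31-FUJ cells, read out with a viability assay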
Description: SANGER: Inhibition of human P31-FUJ cell growth in a cell viability assay.

K052 = experiment: cells; format: functional, cell-based; conditions: Homo sapiens;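 also: Read-out from a cell viability assay, IC50 reflecting suppression of K052 cell growth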
Description: SANGER: Inhibition of human K052 cell growth in a cell viability assay.

WSU-NHL = experiment: cells; format: functional, cell-based; conditions: Homo sapiens;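 also: growth inhibition of human WSU-NHL cells, read out with a cell viability assay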
Description: SANGER: Inhibition of human WSU-NHL cell growth in a cell viability assay.

BOKU = experiment: cells; format: functional, cell-based; conditions: Homo sapiens;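 also: growth inhibition of the human BOKU cell line, read out by a cell viability assay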
Description: SANGER: Inhibition of human BOKU cell growth in a cell viability assay.

A549 = experiment: cells; format: functional, cell-based; conditions: Homo sapiens;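 also: growth inhibition of A549 cells, read out with a cell viability assay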
Description: SANGER: Inhibition of human A549 cell growth in a cell viability assay.

SNU-16 = experiment: cells; format: functional, cell-based; conditions: Homo sapiens;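 also: growth inhibition of human SNU-16 cells, determined with a cell viability readout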
Description: SANGER: Inhibition of human NCI-SNU-16 cell growth in a cell viability assay.

CESS = experiment: SANGER: Inhibition of human CESS cell growth in a cell viability assay.; format: functional, cell-based
RPMI-6666 = experiment: cells; format: functional, cell-based; conditions: Homo sapiens
Description: SANGER: Inhibition of human RPMI-6666 cell growth in a cell viability assay.

NCI-H2141 = experiment: cells; format: functional, cell-based; conditions: Homo sapiens;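 also: growth inhibition of human NCI-H2141 cells, read out with a cell viability assay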
Description: SANGER: Inhibition of human NCI-H2141 cell growth in a cell viability assay.

RL = experiment: cells; format: functional, cell-based; conditions: Homo sapiens
Description: SANGER: Inhibition of human RL cell growth in a cell viability assay.

NCI-H630 = experiment: cells; format: functional, cell-based, Homo sapiens;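 also: growth inhibition of NCI-H630 cells, read out with a cell viability assay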
Description: SANGER: Inhibition of human NCI-H630 cell growth in a cell viability assay.

EB-3 = experiment: cells; format: functional, cell-based; conditions: Homo sapiens;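 also: human EB-3 cells, growth inhibition read out via a cell viability assay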
Description: SANGER: Inhibition of human EB-3 cell growth in a cell viability assay.

KARPAS-422 = experiment: cells; format: functional, cell-based; conditions: Homo sapiens
Description: SANGER: Inhibition of human KARPAS-422 cell growth in a cell viability assay.

MHH-CALL-2 = experiment: cells; format: functional, cell-based; conditions: Homo sapiens;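 also: growth inhibition of the cell line, read out in a cell viability assay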
Description: SANGER: Inhibition of human MHH-CALL-2 cell growth in a cell viability assay.

HuO9 = experiment: cells; format: functional, cell-based, Homo sapiens;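 also: growth inhibition of HuO9 cells, read out with a cell viability assay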
Description: SANGER: Inhibition of human HuO9 cell growth in a cell viability assay.

MONO-MAC-6 = experiment: cells; format: functional, cell-based; conditions: Homo sapiens;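 also: cell viability assay measuring growth inhibition of human MONO-MAC-6 cells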
Description: SANGER: Inhibition of human MONO-MAC-6 cell growth in a cell viability assay.

NCI-H2009 = experiment: cells; format: functional, cell-based, Homo sapiens; conditions: nci-h2009;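 also: cell viability assay measuring inhibition of NCI-H2009 cell growth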
Description: SANGER: Inhibition of human NCI-H2009 cell growth in a cell viability assay.

NCI-H2171 = experiment: cells; format: functional, cell-based; conditions: Homo sapiens;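 also: growth inhibition of human NCI-H2171 cells, read out by a cell viability assay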
Description: SANGER: Inhibition of human NCI-H2171 cell growth in a cell viability assay.

D-566MG = experiment: cells; format: functional, cell-based; conditions: Homo sapiens
KMS-12-PE = experiment: cells; format: functional, cell-based; conditions: Homo sapiens;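 also: growth inhibition of human KMS-12-PE cells, measured with a cell viability assay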
Description: SANGER: Inhibition of human KMS-12-PE cell growth in a cell viability assay.

NCI-H1436 = experiment: cells; format: functional, cell-based; conditions: Homo sapiens;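 also: growth suppression of human NCI-H1436 cells, determined with a cell viability readout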
Description: SANGER: Inhibition of human NCI-H1436 cell growth in a cell viability assay.

NCI-H1703 = experiment: cells; format: functional, cell-based, Homo sapiens;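 also: growth inhibition of NCI-H1703 cells, read out via a cell viability assay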
Description: SANGER: Inhibition of human NCI-H1703 cell growth in a cell viability assay.

Raji = experiment: cells; format: functional, cell-based; conditions: Homo sapiens;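 also: cell viability assay measuring inhibition of Raji cell growth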
Description: SANGER: Inhibition of human Raji cell growth in a cell viability assay.

LP-1 = experiment: cells; format: functional, cell-based; conditions: Homo sapiens;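 also: growth inhibition of human LP-1 cells, with the read-out taken from a cell viability assay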
Description: SANGER: Inhibition of human LP-1 cell growth in a cell viability assay.

SCLC-21H = experiment: cells; format: functional, cell-based; conditions: Homo sapiens;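 also: growth inhibition of cultured human SCLC-21H cells, read out with a cell viability assay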
Description: SANGER: Inhibition of human SCLC-21H cell growth in a cell viability assay.

LOUCY = experiment: cells; format: functional, cell-based; conditions: Homo sapiens;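 also: growth inhibition of human LOUCY cells, read out with a cell viability assay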
Description: SANGER: Inhibition of human LOUCY cell growth in a cell viability assay.

NCI-H2081 = experiment: cells; format: functional, cell-based; conditions: Homo sapiens;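 also: growth inhibition of human NCI-H2081 cells, read out with a cell viability assay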
Description: SANGER: Inhibition of human NCI-H2081 cell growth in a cell viability assay.

DG-75 = experiment: cells; format: functional, cell-based; conditions: Homo sapiens;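 also: growth inhibition of DG-75 cells, read out with a cell viability assay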
Description: SANGER: Inhibition of human DG-75 cell growth in a cell viability assay.

SCC-3 = experiment: cells; format: functional, cell-based; conditions: Homo sapiens;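 also: cell viability assay measuring inhibition of SCC-3 cell growth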
Description: SANGER: Inhibition of human SCC-3 cell growth in a cell viability assay.

SJRH30 = experiment: cells; format: functional, cell-based; conditions: Homo sapiens;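 also: growth inhibition of human SJRH30 cells, read out with a cell viability assay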
Description: SANGER: Inhibition of human SJRH30 cell growth in a cell viability assay.

KNS-62 = experiment: cells; format: functional, cell-based; conditions: Homo sapiens;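 also: inhibition of cell growth, read out with a cell viability assay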
Description: SANGER: Inhibition of human KNS-62 cell growth in a cell viability assay.

JIYOYE = experiment: cells; format: functional, cell-based; conditions: Homo sapiens
Description: SANGER: Inhibition of human JiyoyeP-2003 cell growth in a cell viability assay.

D-423MG = experiment: cells; format: functional, cell-based; conditions: Homo sapiens
Description: SANGER: Inhibition of human D-423MG cell growth in a cell viability assay.

HCC1599 = experiment: cells; format: functional, cell-based; conditions: Homo sapiens;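 also: growth inhibition of HCC1599 cells, read out in a cell viability assay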
Description: SANGER: Inhibition of human HCC1599 cell growth in a cell viability assay.

NCI-H1417 = experiment: cells; format: functional, cell-based; conditions: Homo sapiens;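 also: human NCI-H1417 cells, growth inhibition determined with a cell viability readout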
Description: SANGER: Inhibition of human NCI-H1417 cell growth in a cell viability assay.

NCI-H2029 = experiment: cells; format: functional, cell-based; conditions: Homo sapiens;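 also: Read-out is a viability assay on the cultured cells, and IC50 is the concentration that suppresses cell growth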
Description: SANGER: Inhibition of human NCI-H2029 cell growth in a cell viability assay.

SW 1116 = experiment: cells; format: functional, cell-based; conditions: Homo sapiens;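 also: growth inhibition of SW1116 cells, read out with a cell viability assay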
Description: SANGER: Inhibition of human SW1116 cell growth in a cell viability assay.

NCI-H1666 = experiment: cells; format: functional, cell-based; conditions: Homo sapiens;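 also: growth inhibition of the cell line, read out with a cell viability assay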
Description: SANGER: Inhibition of human NCI-H1666 cell growth in a cell viability assay.

SU-DHL-1 = experiment: SANGER: Inhibition of human SU-DHL-1 cell growth in a cell viability assay.; format: functional, cell-based
MDA-MB-134-VI = experiment: cells; format: functional, cell-based; conditions: Homo sapiens
Description: SANGER: Inhibition of human MDA-MB-134-VI cell growth in a cell viability assay.

SUP-T1 = experiment: cells; format: functional, cell-based; conditions: Homo sapiens;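 also: growth inhibition of human SUP-T1 cells, read out as cell viability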
Description: SANGER: Inhibition of human SUP-T1 cell growth in a cell viability assay.

COR-L279 = experiment: SANGER: Inhibition of human COR-L279 cell growth in a cell viability assay.; format: functional, cell-based
NCI-H719 = experiment: cells; format: functional, cell-based; conditions: Homo sapiens;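 also: growth inhibition of the cultured cell line, read out with a viability assay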
Description: SANGER: Inhibition of human NCI-H719 cell growth in a cell viability assay.

NCI-H1048 = experiment: cells; format: functional, cell-based; conditions: Homo sapiens;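 also: growth inhibition of human NCI-H1048 cells, read out with a cell viability assay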
Description: SANGER: Inhibition of human NCI-H1048 cell growth in a cell viability assay.

LC-1F = experiment: cells; format: functional, cell-based; conditions: Homo sapiens;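 also: growth inhibition of human LC-1F cells, read out with a cell viability assay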
Description: SANGER: Inhibition of human LC-1F cell growth in a cell viability assay.

TI-73 = experiment: cells; format: functional, cell-based; conditions: Homo sapiens;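 also: cell viability assay measuring how much compounds suppress growth of the cultured cell line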
Description: SANGER: Inhibition of human TI-73 cell growth in a cell viability assay.

NBsusSR = experiment: cells; format: functional, cell-based; conditions: Homo sapiens;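 also: growth inhibition of the human cell line, read out with a cell viability assay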
Description: SANGER: Inhibition of human NBsusSR cell growth in a cell viability assay.

H9 = experiment: cells; format: functional, cell-based; conditions: Homo sapiens
Description: SANGER: Inhibition of human H9 cell growth in a cell viability assay.

BALL-1 = experiment: cells; format: functional, cell-based; conditions: Homo sapiens;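 also: growth inhibition of BALL-1 cells, read out with a cell viability assay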
Description: SANGER: Inhibition of human BALL-1 cell growth in a cell viability assay.

ECC10 = experiment: cells; format: functional, cell-based; conditions: Homo sapiens;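 also: growth inhibition of ECC10 cells, read out by a cell viability assay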
Description: SANGER: Inhibition of human ECC10 cell growth in a cell viability assay.

TGBC11TKB = experiment: cells; format: functional, cell-based; conditions: Homo sapiens;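 also: growth inhibition of human TGBC11TKB cells, measured by a cell viability assay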
Description: SANGER: Inhibition of human TGBC11TKB cell growth in a cell viability assay.

Work on `Cc1cc([C@@H](C)Nc2ccccc2C(=O)O)c2nc(N3CCOCC3)cc(=O)n2c1` [AZD-6482] yielded an IC50 (Daudi) of 1.07 µM, an IC50 (NCI-H1882) of over 5.12 µM and an IC50 (BL-70) of 4.86 µM. It also gave an IC50 (EW-22) of over 5.12 µM, an IC50 (ARH-77) of over 5.12 µM and an IC50 (BT-549) of over 5.12 µM. The IC50 (NCI-H1694) was over 5.12 µM, the IC50 (LU-165) was over 5.12 µM and the IC50 (GDM-1) was 2.24 µM. It also gave an IC50 (SK-MM-2) of over 5.12 µM, an IC50 (NCI-H2291) of 1.58 µM and an IC50 (SW900) of over 5.12 µM. The IC50 (P31-FUJ) was over 5.12 µM, the IC50 (K052) was over 5.12 µM and the IC50 (WSU-NHL) was over 5.12 µM. It also gave an IC50 (BOKU) of over 5.12 µM, an IC50 (A549) of over 5.12 µM and an IC50 (SNU-16) of over 5.12 µM. The IC50 (CESS) was 4.8 µM, the IC50 (RPMI-6666) was 0.644 µM and the IC50 (NCI-H2141) was over 5.12 µM. The IC50 (RL) was over 5.12 µM, the IC50 (NCI-H630; nci-h630) was over 5.12 µM and the IC50 (EB-3) was over 5.12 µM. For the same molecule, the IC50 (KARPAS-422) was 1.54 µM, the IC50 (MHH-CALL-2) was over 5.12 µM and the IC50 (HuO9; huo9) was 1.61 µM and > 5.12 µM. For the same molecule, the IC50 (MONO-MAC-6) was over 5.12 µM, the IC50 (NCI-H2009) was 5.01 µM and > 5.12 µM and the IC50 (NCI-H2171) was over 5.12 µM. For the same molecule, the IC50 (D-566MG) was 3.07 µM, the IC50 (KMS-12-PE) was over 5.12 µM and the IC50 (NCI-H1436) was over 5.12 µM. The IC50 (NCI-H1703; Homo sapiens, NCI-H1703) was over 5.12 µM, the IC50 (NCI-H1703; nci-h1703) was over 5.12 µM and the IC50 (Raji) was over 5.12 µM. The IC50 (LP-1) was over 5.12 µM, the IC50 (SCLC-21H) was over 5.12 µM and the IC50 (LOUCY) was over 5.12 µM. For the same molecule, the IC50 (NCI-H2081) was over 5.12 µM, the IC50 (DG-75) was over 5.12 µM and the IC50 (SCC-3) was over 5.12 µM. It also gave an IC50 (SJRH30) of over 5.12 µM, an IC50 (KNS-62) of over 5.12 µM and an IC50 (JIYOYE) of over 5.12 µM. The IC50 (D-423MG) was 2.94 µM, the IC50 (HCC1599) was over 5.12 µM and the IC50 (NCI-H1417) was over 5.12 µM. For the same molecule, the IC50 (NCI-H2029) was over 5.12 µM, the IC50 (SW 1116) was over 5.12 µM and the IC50 (NCI-H1666) was over 5.12 µM. The IC50 (SU-DHL-1) was 0.568 µM, the IC50 (MDA-MB-134-VI) was over 5.12 µM and the IC50 (SUP-T1) was over 5.12 µM. The IC50 (COR-L279) was over 5.12 µM, the IC50 (NCI-H719) was over 5.12 µM and the IC50 (NCI-H1048) was 1.23 µM. For the same molecule, the IC50 (LC-1F) was over 5.12 µM.

With `COc1ccc(-c2ccc3c(N4CCOC[C@@H]4C)nc(N4CCOC[C@@H]4C)nc3n2)cc1CO` [AZD-8055] the IC50 (TI-73) was 0.457 µM, the IC50 (EW-22) was 0.684 µM and the IC50 (BT-549) was over 2 µM. The IC50 (NCI-H2291) was over 2 µM, the IC50 (NBsusSR) was 0.17 µM and the IC50 (SW900) was 1.75 µM. For the same molecule, the IC50 (A549) was 0.195 µM, the IC50 (H9) was 0.0669 µM and the IC50 (BALL-1) was over 2 µM. For the same molecule, the IC50 (NCI-H630; Homo sapiens, NCI-H630) was over 2 µM, the IC50 (HuO9; Homo sapiens, HuO9) was 0.407 µM and the IC50 (D-566MG) was 1.07 µM. The IC50 (ECC10) was 0.35 µM, the IC50 (SJRH30) was over 2 µM and the IC50 (KNS-62) was 0.506 µM. For the same molecule, the IC50 (D-423MG) was 1.03 µM, the IC50 (NCI-H2029) was over 2 µM and the IC50 (SW 1116) was over 2 µM. It also gave an IC50 (NCI-H1666) of over 2 µM, an IC50 (NCI-H1048) of 0.586 µM and an IC50 (TGBC11TKB) of over 2 µM.

`CC(=O)O[C@@]12CO[C@@H]1C[C@H](O)[C@@]1(C)C(=O)[C@H](O)C3=C(C)[C@@H](OC(=O)[C@H](O)[C@@H](NC(=O)OC(C)(C)C)c4ccccc4)C[C@@](O)([C@@H](OC(=O)c4ccccc4)[C@H]21)C3(C)C` [DOCETAXEL] was tested, and the IC50 (TI-73) was 0.00144 µM, the IC50 (EW-22) was over 0.01 µM and the IC50 (NCI-H2291) was over 0.01 µM. The IC50 (NBsusSR) was 0.0011 µM, the IC50 (SW900) was 0.00755 µM and the IC50 (A549) was 0.000882 µM. The IC50 (H9) was 0.00124 µM, the IC50 (BALL-1) was over 0.01 µM and the IC50 (NCI-H630; Homo sapiens, NCI-H630) was over 0.01 µM. The IC50 (HuO9; Homo sapiens, HuO9) was 0.00346 µM, the IC50 (D-566MG) was 0.000182 µM and the IC50 (NCI-H1703; Homo sapiens, NCI-H1703) was 0.00157 µM. The IC50 (ECC10) was 0.0046 µM, the IC50 (KNS-62) was 0.00112 µM and the IC50 (D-423MG) was 0.0013 µM. For the same molecule, the IC50 (NCI-H2029) was over 0.01 µM, the IC50 (SW 1116) was over 0.01 µM and the IC50 (NCI-H1666) was 0.00505 µM. The IC50 (NCI-H1048) was 0.00192 µM and the IC50 (TGBC11TKB) was 0.00469 µM.

`COc1ccc(C2=N[C@@H](c3ccc(Cl)cc3)[C@@H](c3ccc(Cl)cc3)N2C(=O)N2CCNC(=O)C2)c(OC(C)C)c1` [NUTLIN-3] gave an IC50 (TI-73) of over 8 µM, an IC50 (EW-22) of over 8 µM and an IC50 (BT-549) of over 8 µM. It also gave an IC50 (NCI-H2291) of over 8 µM, an IC50 (NBsusSR) of over 8 µM and an IC50 (SW900) of over 8 µM. The IC50 (A549) was 3.64 µM, the IC50 (H9) was over 8 µM and the IC50 (BALL-1) was over 8 µM. It also gave an IC50 (NCI-H630; Homo sapiens, NCI-H630) of over 8 µM, an IC50 (HuO9; Homo sapiens, HuO9) of over 8 µM and an IC50 (D-566MG) of over 8 µM. It also gave an IC50 (ECC10) of over 8 µM, an IC50 (SJRH30) of over 8 µM and an IC50 (KNS-62) of over 8 µM. The IC50 (D-423MG) was over 8 µM, the IC50 (NCI-H2029) was over 8 µM and the IC50 (SW 1116) was over 8 µM. It also gave an IC50 (NCI-H1666) of over 8 µM, an IC50 (NCI-H1048) of over 8 µM and an IC50 (TGBC11TKB) of over 8 µM.

Work on `O=C(c1cc(Cc2n[nH]c(=O)c3ccccc23)ccc1F)N1CCN(C(=O)C2CC2)CC1` [OLAPARIB] yielded an IC50 (TI-73) of over 5 µM, an IC50 (EW-22) of 4.36 µM and an IC50 (NCI-H2291) of over 5 µM. The IC50 (NBsusSR) was over 5 µM, the IC50 (SW900) was over 5 µM and the IC50 (A549) was over 5 µM. For the same molecule, the IC50 (H9) was over 5 µM, the IC50 (BALL-1) was over 5 µM and the IC50 (NCI-H630; Homo sapiens, NCI-H630) was over 5 µM. For the same molecule, the IC50 (HuO9; Homo sapiens, HuO9) was over 5 µM, the IC50 (D-566MG) was 2.45 µM and the IC50 (NCI-H1703; Homo sapiens, NCI-H1703) was over 5 µM. It also gave an IC50 (ECC10) of over 5 µM, an IC50 (KNS-62) of over 5 µM and an IC50 (D-423MG) of over 5 µM. It also gave an IC50 (NCI-H2029) of over 5 µM, an IC50 (SW 1116) of over 5 µM and an IC50 (NCI-H1666) of over 5 µM. It also gave an IC50 (NCI-H1048) of over 5 µM and an IC50 (TGBC11TKB) of over 5 µM.
